Results on 6 compounds are retold here after US5977063A, “Alkylated hexapeptides” (Eli Lilly and Company, priority 1998, dated 1999).

Common to all, as to assay type: cell-based
The subject of assay [1] is Staphylococcus aureus 489. The assay is described as follows: MIC, standard broth micro-dilution assay, SA 489. Set-up: unit not given here. The method, then:
(§1) The antibacterial efficacy of the present compounds is illustrated by Table II. The minimal inhibitory concentrations (MICs) were determined using a standard broth micro-dilution assay.

Assay [2] has as its system Enterococcus faecium and faecalis (SENSITIVE). The assay is described as follows: MIC, standard broth micro-dilution assay, SENSITIVE enterococci. The arrangement: unit not given here. The settings on record: geometric mean of 4-6 isolates. The method, then:
as §1

For assay [3], the system named is Staphylococcus haemolyticus 105. Put plainly: MIC, standard broth micro-dilution assay, SH 105. Set-up: unit not given here. Here is the method:
as §1

Assay [4] concerns Streptococcus pneumoniae P1. The assay is described as follows: MIC, standard broth micro-dilution assay, SPN P1. The arrangement: unit not given here. Here is the method: as §1
For orientation: In broth dilution the organism is exposed to a series of concentrations in liquid medium.

The test system of assay [5] is Staphylococcus epidermidis 270. The assay is described as follows: MIC, standard broth micro-dilution assay, SE 270. The arrangement: unit not given here. The method, then:
as §1

Assay [6] relates to Staphylococcus aureus 446. The assay is described as follows: MIC, standard broth micro-dilution assay, SA 446. The arrangement: unit not given here. Here is the method: as §1
For assay [7], the system named is Enterococcus faecium and faecalis (RESISTANT). The following applies: geometric mean of 4-6 isolates. The method, then: as §1
Assay [8] relates to Streptococcus pyogenes C203. The assay is described as follows: MIC, standard broth micro-dilution assay, SPY C203. The arrangement: unit not given here. The method, then:
as §1

In assay [9] the test system is Staphylococcus haemolyticus 415. Put plainly: MIC, standard broth micro-dilution assay, SH 415. Set-up: unit not given here. Here is the method: as §1
Assay [10] concerns Staphylococcus aureus 447. Put plainly: MIC, standard broth micro-dilution assay, SA 447. Set-up: unit not given here. The method, then: as §1

The structures appear in SMILES notation. Bounds are passed on as bounds.

On to `C[C@@H]1O[C@@H](O[C@H]2[C@H](Oc3c4cc5cc3Oc3ccc(cc3Cl)[C@@H](O[C@H]3C[C@](C)(N)[C@@H](O)[C@H](C)O3)[C@@H]3NC(=O)[C@H](NC(=O)[C@@H]5NC(=O)[C@H](CC(N)=O)NC(=O)[C@H](NCCCCCCc5ccccc5)[C@H](O)c5ccc(c(Cl)c5)O4)c4ccc(O)c(c4)-c4c(O)cc(O)cc4[C@@H](C(=O)O)NC3=O)O[C@H](CO)[C@@H](O)[C@@H]2O)C[C@](C)(N)[C@H]1O` [Example 14, N^1 -(6-PHENYL-n-HEXYL)DESLEUCYL-A82846B], for which, in assay [1], the “Minimal Inhibitory Concentration (MIC) SA 489” value was found to be 8. The “Minimal Inhibitory Concentration (MIC) SENSITIVE” value in assay [2] is on record as 37. For the same compound, the “Minimal Inhibitory Concentration (MIC) SH 105” value in [3] is reported as 8. The “Minimal Inhibitory Concentration (MIC) SPN P1” value in [4] is given as “≤ .06”. In addition, the “Minimal Inhibitory Concentration (MIC) SE 270” value in [5] was 8. Moreover, the “Minimal Inhibitory Concentration (MIC) SA 446” value in assay [6] was found to be 16. Besides, the “Minimal Inhibitory Concentration (MIC) RESISTANT” value in assay [7] is recorded as above 50. In addition, the “Minimal Inhibitory Concentration (MIC) SPY C203” value in assay [8] is “≤ .06”. The “Minimal Inhibitory Concentration (MIC) SH 415” value in assay [9] turned out to be 8. The “Minimal Inhibitory Concentration (MIC) SA 447” value in assay [10] is given as 8.
On to `CCCCCCN[C@H]1C(=O)N[C@@H](CC(N)=O)C(=O)N[C@H]2C(=O)N[C@H]3C(=O)N[C@H](C(=O)N[C@H](C(=O)O)c4cc(O)cc(O)c4-c4cc3ccc4O)[C@H](O[C@H]3C[C@](C)(N)[C@@H](O)[C@H](C)O3)c3ccc(c(Cl)c3)Oc3cc2cc(c3O[C@@H]2O[C@H](CO)[C@@H](O)[C@H](O)[C@H]2O[C@H]2C[C@](C)(NCc3ccc(-c4ccccc4)cc3)[C@@H](O)[C@H](C)O2)Oc2ccc(cc2Cl)[C@H]1O` [Example 11, N^1 -n-HEXYL-N^DISACC -(p-PHENYLBENZYL)-DESLEUCYL-A82846B], for which the “Minimal Inhibitory Concentration (MIC) SA 489” value in assay [1] is given as 1. Moreover, the “Minimal Inhibitory Concentration (MIC) SENSITIVE” value in [2] was determined as 11. Also, the “Minimal Inhibitory Concentration (MIC) SH 105” value in assay [3] was 2. In assay [4], the “Minimal Inhibitory Concentration (MIC) SPN P1” value is listed as 0.125. In addition, the “Minimal Inhibitory Concentration (MIC) SE 270” value in [5] is given as 0.5. The “Minimal Inhibitory Concentration (MIC) SA 446” value in assay [6] is recorded as 1. In addition, the “Minimal Inhibitory Concentration (MIC) RESISTANT” value in [7] is recorded as 27. For the same compound, the “Minimal Inhibitory Concentration (MIC) SPY C203” value in [8] is 0.125. Further, the “Minimal Inhibitory Concentration (MIC) SH 415” value in [9] turned out to be 1. Besides, the “Minimal Inhibitory Concentration (MIC) SA 447” value in [10] came to 0.5.
With `CCCCCCN[C@H]1C(=O)N[C@@H](CC(N)=O)C(=O)N[C@H]2C(=O)N[C@H]3C(=O)N[C@H](C(=O)N[C@H](C(=O)O)c4cc(O)cc(O)c4-c4cc3ccc4O)[C@H](O[C@H]3C[C@](C)(NCCCCCC)[C@@H](O)[C@H](C)O3)c3ccc(c(Cl)c3)Oc3cc2cc(c3O[C@@H]2O[C@H](CO)[C@@H](O)[C@H](O)[C@H]2O[C@H]2C[C@](C)(NCCCCCC)[C@@H](O)[C@H](C)O2)Oc2ccc(cc2Cl)[C@H]1O` [Example 8, N^1,N^DISACC,N^MONOSACC -TRI-n-HEXYLDESLEUCYL-A82846B], the “Minimal Inhibitory Concentration (MIC) SA 489” value in assay [1] came out at 8. Also, the “Minimal Inhibitory Concentration (MIC) SENSITIVE” value in assay [2] was 55. Moreover, in assay [3], the “Minimal Inhibitory Concentration (MIC) SH 105” value is reported as 4. The “Minimal Inhibitory Concentration (MIC) SPN P1” value in assay [4] stood at 2. Moreover, the “Minimal Inhibitory Concentration (MIC) SE 270” value in assay [5] turned out to be 8. The “Minimal Inhibitory Concentration (MIC) SA 446” value in assay [6] was determined as 16. In assay [7], the “Minimal Inhibitory Concentration (MIC) RESISTANT” value came out at 76. Further, the “Minimal Inhibitory Concentration (MIC) SPY C203” value in assay [8] was found to be 1. In addition, the “Minimal Inhibitory Concentration (MIC) SH 415” value in assay [9] came out at 16. Also, in assay [10], the “Minimal Inhibitory Concentration (MIC) SA 447” value is listed as 8.
On to `C[C@@H]1O[C@@H](O[C@H]2[C@H](Oc3c4cc5cc3Oc3ccc(cc3Cl)[C@@H](O[C@H]3C[C@](C)(N)[C@@H](O)[C@H](C)O3)[C@@H]3NC(=O)[C@H](NC(=O)[C@@H]5NC(=O)[C@H](CC(N)=O)NC(=O)[C@H](NCCCCCCCCc5ccccc5)[C@H](O)c5ccc(c(Cl)c5)O4)c4ccc(O)c(c4)-c4c(O)cc(O)cc4[C@@H](C(=O)O)NC3=O)O[C@H](CO)[C@@H](O)[C@@H]2O)C[C@](C)(N)[C@H]1O` [Example 19, N^1 -(8-PHENYL-n-OCTYL)DESLEUCYL-A82846B], for which the “Minimal Inhibitory Concentration (MIC) SA 489” value in assay [1] was determined as 1. In assay [2], the “Minimal Inhibitory Concentration (MIC) SENSITIVE” value turned out to be 254. Further, the “Minimal Inhibitory Concentration (MIC) SH 105” value in [3] came out at 2. In addition, in assay [4], the “Minimal Inhibitory Concentration (MIC) SPN P1” value was 0.5. For the same compound, the “Minimal Inhibitory Concentration (MIC) SE 270” value in assay [5] was found to be 4. The “Minimal Inhibitory Concentration (MIC) SA 446” value in assay [6] was 2. Further, the “Minimal Inhibitory Concentration (MIC) RESISTANT” value in assay [7] is 45. Moreover, in assay [8], the “Minimal Inhibitory Concentration (MIC) SPY C203” value is 0.5. Moreover, the “Minimal Inhibitory Concentration (MIC) SH 415” value in assay [9] is on record as 2. In addition, the “Minimal Inhibitory Concentration (MIC) SA 447” value in assay [10] was 1.
In the case of `C[C@@H]1O[C@@H](O[C@H]2[C@H](Oc3c4cc5cc3Oc3ccc(cc3Cl)[C@@H](O[C@H]3C[C@](C)(NCc6ccccc6)[C@@H](O)[C@H](C)O3)[C@@H]3NC(=O)[C@H](NC(=O)[C@@H]5NC(=O)[C@H](CC(N)=O)NC(=O)[C@H](NCc5ccccc5)[C@H](O)c5ccc(c(Cl)c5)O4)c4ccc(O)c(c4)-c4c(O)cc(O)cc4[C@@H](C(=O)O)NC3=O)O[C@H](CO)[C@@H](O)[C@@H]2O)C[C@](C)(NCc2ccc(-c3ccccc3)cc2)[C@H]1O` [Example 6, N^1,N^MONOSACC -DIBENZYL-N^DISACC -(p-PHENYLBENZYL)-DESLEUCYL-A82846B], the “Minimal Inhibitory Concentration (MIC) SA 489” value in assay [1] was 2. In addition, the “Minimal Inhibitory Concentration (MIC) SENSITIVE” value in [2] worked out at 6.1. Further, in assay [3], the “Minimal Inhibitory Concentration (MIC) SH 105” value was 0.5. In assay [4], the “Minimal Inhibitory Concentration (MIC) SPN P1” value stood at 0.5. For the same compound, the “Minimal Inhibitory Concentration (MIC) SE 270” value in [5] was determined as 0.5. For the same compound, in [6], the “Minimal Inhibitory Concentration (MIC) SA 446” value amounted to 2. Further, the “Minimal Inhibitory Concentration (MIC) RESISTANT” value in assay [7] turned out to be 16. Moreover, the “Minimal Inhibitory Concentration (MIC) SPY C203” value in [8] was determined as 0.125. The “Minimal Inhibitory Concentration (MIC) SH 415” value in assay [9] was determined as 1. The “Minimal Inhibitory Concentration (MIC) SA 447” value in assay [10] came to 2.
`C[C@@H]1O[C@@H](O[C@H]2[C@H](Oc3c4cc5cc3Oc3ccc(cc3Cl)[C@@H](O[C@H]3C[C@](C)(N)[C@@H](O)[C@H](C)O3)[C@@H]3NC(=O)[C@H](NC(=O)[C@@H]5NC(=O)[C@H](CC(N)=O)NC(=O)[C@H](NCCCCCCCCCCc5ccccc5)[C@H](O)c5ccc(c(Cl)c5)O4)c4ccc(O)c(c4)-c4c(O)cc(O)cc4[C@@H](C(=O)O)NC3=O)O[C@H](CO)[C@@H](O)[C@@H]2O)C[C@](C)(N)[C@H]1O` [Example 18, N^1 -(10-PHENYL-n-DECYL)DESLEUCYL-A82846B]: the “Minimal Inhibitory Concentration (MIC) SA 489” value in assay [1] was found to be 2. Besides, in assay [2], the “Minimal Inhibitory Concentration (MIC) SENSITIVE” value was 12. Moreover, in assay [3], the “Minimal Inhibitory Concentration (MIC) SH 105” value came out at 4. The “Minimal Inhibitory Concentration (MIC) SPN P1” value in assay [4] was 0.5. Moreover, the “Minimal Inhibitory Concentration (MIC) SE 270” value in [5] was 4. For the same compound, the “Minimal Inhibitory Concentration (MIC) SA 446” value in [6] is listed as 2. The “Minimal Inhibitory Concentration (MIC) RESISTANT” value in [7] is 19. The “Minimal Inhibitory Concentration (MIC) SPY C203” value in assay [8] is 0.25. In addition, the “Minimal Inhibitory Concentration (MIC) SH 415” value in assay [9] is reported as 2. For the same compound, the “Minimal Inhibitory Concentration (MIC) SA 447” value in [10] was 2.
